Measured values taken from patent publication US9650614B2, “Anaplastic lymphoma kinase (ALK) as oncoantigen for lymphoma vaccination” (priority 2007, dated 2017).
“Also recorded” adds a separate entry of the source.

B1: pDEST-ALKt: pDEST plasmid with truncated form of ALK lacking part of the tyrosine kinase domain (SEQ ID No.: 2) (nucleic acid)
DNA: TGCTTTGCTGGCAAGACCTCCTCCATCAGTGACCTGAAGGAGGTGCCGCGGAAAAACATCACCCTCATTCGGGGTCTGGGCCATGGCGCCTTTGGGGAGGTGTATGAAGGCCAGGTGTCCGGAATGCCCAACGACCCAAGCCCCCTGCAAGTGGCTGTGAAGACGCTGCCTGAAGTGTGCTCTGAACAGGACGAACTGGATTTCCTCATGGAAGCCCTGATCATCAGCAAATTCAACCACCAGAACATTGTTCGCTGCATTGGGGTGAGCCTGCAATCCCTGCCCCGGTTCATCCTGCTGGAGCTCATGGCGGGGGGAGACCTCAAGTCCTTCCTCCGAGAGACCCGCCCTCGCCCGAGCCAGCCCTCCTCCCTGGCCATGCTGGACCTTCTGCACGTGGCTCGGGACATTGCCTGTGGCTGTCAGTATTTGGAGGAAAACCACTTCATCCACCGAGACATTGCTGCCAGAAACTGCCTCTTGACCTGTCCAGGCCCTGGAAGAGTGGCCAAGATTGGAGACTTCGGGATGGCCCGAGACATCTACAGGGCGAGCTACTATAGAAAGGGAGGCTGTGCCATGCTGCCAGTTAAGTGGATGCCCCCAGAGGCCTTCATGGAAGGAATATTCACTTCTAAAACAGACACATGGTCCTTTGGAGTGCTGCTATGGGAAATCTTTTCTCTTGGATATATGCCATACCCCAGCAAAAGCAACCAGGAAGTTCTGGAGTTTGTCACCAGTGGAGGCCGGATGGACCCACCCAAGAACTGCCCTGGGCCTGTATACCGGATAATGACTCAGTGCTGGCAACATCAGCCTGAAGACAGGCCCAACTTTGCCATCATTTTGGAGAGGATTGAATACTGCACCCAGGACCCGGATGTAATCAACACCGCTTTG
modifications: portion of cytoplasmic domain of ALK - human

Experiments:
[1] = test system: NPM-ALK expressing lymphoma cells; experiment: s.c. challenge with NPM-ALK lymphoma cells after DNA vaccination; type: in vivo, BALB/c mice; settings: vaccinated twice at a week interval; s.c. challenge one week after second vaccination
Description: FIG. 1. ALK vaccination prevents the growth of NPM-ALK positive lymphoma cells. (a,b) BALB/c mice were vaccinated on day 0 and 7 in both the tibial muscles with 40 μg of pDEST plasmid or with pDEST-ALK (ALK) plasmid coding for the full ALK tyrosine kinase intracytoplasmic domain (a) or with pDEST-ALKt (ALKt) coding for a truncated portion of ALK lacking the part of the tyrosine kinase domain (b). An additional group of mice was vaccinated with the pDEST-ALK or pDEST-ALKt plasmids combined with the same amount of a pcDNA3 plasmid coding for GM-CSF. […]
Mice were challenged subcutaneously in the right flank with 0.2 ml PBS of a single suspension containing 10^5 to 10^6 ALK-OVA and VAC lymphoid cells, as indicated in each experiment. The cages were coded, and the incidence and the growth of tumors were evaluated at the indicated times in a blind fashion. Neoplastic masses were measured with calipers in the two perpendicular diameters.
For DNA electroporation, 50 μg of pDEST empty vector or pDEST-ALK (ALK) vector in 20 μl of 0.9% NaCl with 6 mg/ml polyglutamate were injected on days 0 and 7 into both the tibial muscle of anesthetized BALB/c mice. […] Protection was evaluated as the percentage of lymphoma-free mice 21 days after challenge.

NPM-ALK lymphoma cells [2] = experiment: in vitro survival of lymphoma cells with doxorubicin (TMRM staining, flow cytometry); type: cell-based, murine; settings: 24 or 48 hours, increasing concentrations
Description: FIG. 6. NPM-ALK lymphoma cells are sensitive to doxorubicin. NPM-ALK lymphoma cells were incubated in vitro for 24 or 48 hours with increasing concentrations of doxorubicin. Percentages of alive cells were calculated by TMRM staining and flow cytometry analyses.
To mimic more strictly these clinical settings, the efficiency of the vaccination strategy disclosed herein in association with chemotherapy, which remains the standard therapeutic strategy for human Anaplastic Large Cell Lymphomas (ALCL), was tested.

NPM-ALK lymphoma cells [3] = experiment: i.v. lymphoma treated with single dose doxorubicin followed by DNA vaccination; type: in vivo, BALB/c mice
Source text: FIG. 2. Efficacy of ALK vaccination in preventing disseminated lymphoma growth and in lymphoma therapy (a,b) Disseminated growth of NPM-ALK lymphoma cells injected in the tail vein in mock or ALK plasmid vaccinated BALB/c mice. (a) All mock vaccinated mice challenged i.v. 7 days after the second vaccination with 1×10^6 NPM-ALK lymphoma died of lymphoma outgrowth within 50 days after challenge while 70% of ALK vaccinated mice remained alive and well for all the observation period of 180 days. […] (c) Increasing amounts of NPM-ALK lymphoma cells were injected s.c. in BALB/c mice on day 0. Mice were then vaccinated as described above on days 1 and 8. Tumor growth was followed over time. Data are from one of two independent experiments with at least 7 mice for each group. * P<0.01. (d) BALB/c mice were i.v. injected with 1×10^6 NPM-ALK lymphoma cells on day 0. On day 7 mice received i.v. 10 mg/kg of doxorubicin (dashed arrow) followed on days 14, 21 and 28 by DNA vaccination with empty (mock) or ALK-expressing plasmids (full arrows). Mice were then followed up to 90 days. […] Tumor size was measured over time. […]
A single dose chemotherapy protocols was employed using doxorubicin (10 mg/kg) 7 day prior the i.v. injection of a challenging dose (1×10^6) of NPM-ALK positive lymphoma cells. […] Tumor growth and overall survival were determined, overtime.

Row | Molecule | protection from localized lymphoma growth [1] | sensitivity of lymphoma cells (apoptosis / alive cells) (NPM-ALK lymphoma cells [2]) | cure rate (NPM-ALK lymphoma cells [3]; chemotherapy alone (single dose doxorubicin one week after 1×10^6 cells i.v.)) [%] | survival (NPM-ALK lymphoma cells [3]; chemotherapy alone versus untreated mice)
1 | pDEST-ALK^K210R: pDEST plasmid encoding cytoplasmic portion of kinase dead mutant K210R of ALK (SEQ ID No.:3) | total protection |  |  | 
2 | COc1cccc2c1C(=O)c1c(O)c3c(c(O)c1C2=O)C[C@@](O)(C(=O)CO)C[C@@H]3O[C@H]1C[C@H](N)[C@H](O)[C@H](C)O1 [doxorubicin] |  | sensitive; also recorded: rapid apoptosis with low doses | 60 | prolonged their survival
3 | B1 | total protection |  |  | 
